Among the test systems are LOX IMVI melanoma; SNB-75 CNS; ACHN renal; A549 NSCLC; U251 CNS; KM12 colon; CAKI-1 renal; UACC-257 melanoma; HOP-92 NSCLC; RXF 393 renal.
Assay in all cases: inhibition of tumour cell growth, NCI panel, 48 h

Here are results for 13 compounds from PubChem BioAssay (NCI).

Several values for one entry are separate records, joined by “and”; a condition that tells them apart may be missing. Identical values can stand only once.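 Assay format: 96-well plates, 48-hour exposure. GI50: concentration for 50% inhibition of growth. TGI: total growth inhibition.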

As for `COc1c(C(C)=O)c(OCCCCOc2c(C(C)=O)c(OC)c3ccoc3c2OC)c(OC)c2occc12`, the GI50 with LOX IMVI melanoma is 4.81 µM; in the assay with SNB-75 CNS it was 8.72 µM; with ACHN renal, 3.6 µM; in the assay with A549 NSCLC it was 3.35 µM; in the assay on U251 CNS, greater than 28.1 µM; in the assay on KM12 colon, 3.11 µM. For the same compound, in the assay on CAKI-1 renal, the GI50 is 3.3 µM. Also, the TGI in the assay with LOX IMVI melanoma, in the assay on SNB-75 CNS, in the assay on ACHN renal, in the assay on A549 NSCLC, with U251 CNS and in the assay with KM12 colon was greater than 100 µM each time. In the assay with CAKI-1 renal, this compound gave a TGI greater than 100 µM.

`O=[N+]([O-])c1ccc(NN=C2CN3CCN(C2)c2ccccc23)c([N+](=O)[O-])c1`: the TGI in the assay with UACC-257 melanoma, with LOX IMVI melanoma, in the assay on ACHN renal, in the assay with A549 NSCLC, in the assay with U251 CNS and with KM12 colon was greater than 100 µM throughout. In addition, the TGI in the assay with HOP-92 NSCLC and with CAKI-1 renal was greater than 100 µM each time.

On to `O=c1[nH]c(=O)n(C2CC(O)C(CO)O2)cc1Oc1ccccc1` (centres undefined), for which the TGI with UACC-257 melanoma, in the assay on LOX IMVI melanoma, with SNB-75 CNS, in the assay on ACHN renal, in the assay with A549 NSCLC and in the assay on U251 CNS was greater than 100 µM throughout. In addition, the TGI with KM12 colon, in the assay on CAKI-1 renal and in the assay on RXF 393 renal was greater than 100 µM each time.

With `CC(C)(C)C1CCC2c3c([nH]c4ccccc34)C3C(=O)N(c4ccc(C#N)cc4)C(=O)C3C2C1` (centres undefined), the TGI in the assay with UACC-257 melanoma is 82.9 µM; in the assay on LOX IMVI melanoma, 34.6 µM; in the assay on ACHN renal, 65.3 µM; in the assay with A549 NSCLC, 63.5 µM; in the assay on U251 CNS, 37.1 µM; in the assay on HOP-92 NSCLC, 22.6 µM. Moreover, the TGI was determined as 61 µM in the assay on CAKI-1 renal and 15.4 µM in the assay with RXF 393 renal.

`Cc1cc(N(CCC#N)S(=O)(=O)c2ccccc2)ccc1/C=C1\N=C(c2ccc(Cl)cc2)OC1=O`: the TGI in the assay on UACC-257 melanoma, with LOX IMVI melanoma, in the assay on ACHN renal, in the assay on A549 NSCLC, in the assay with U251 CNS and in the assay on KM12 colon was greater than 100 µM each time. The TGI with HOP-92 NSCLC, with CAKI-1 renal and in the assay with RXF 393 renal was greater than 100 µM in each case.

Regarding `C=C(C)[C@@H]1CCC=C2CC[C@]3(C)[C@H](CC[C@@H]4[C@@]5(C)CCCNC(C)(C)[C@@H]5CC[C@]43C)[C@H]21`, the GI50 was 3.34 µM with UACC-257 melanoma; 1.67 µM with SNB-75 CNS; 1.85 µM in the assay with ACHN renal; 2.04 µM in the assay with A549 NSCLC; 1.69 µM with U251 CNS; 1.63 µM in the assay on RXF 393 renal. Further, the TGI is 9.32 µM with UACC-257 melanoma; 3.94 µM in the assay with SNB-75 CNS; 3.25 µM in the assay on ACHN renal; 3.86 µM in the assay with A549 NSCLC; 3.12 µM in the assay on U251 CNS; 3.13 µM in the assay with RXF 393 renal.

As to `C(/C=N/NC1=NCCCCN1)=N\NC1=NCCCCN1`, the TGI with UACC-257 melanoma, in the assay with LOX IMVI melanoma, with SNB-75 CNS, in the assay with ACHN renal, with A549 NSCLC and in the assay with U251 CNS was greater than 100 µM each time. Besides, the TGI with KM12 colon, in the assay with HOP-92 NSCLC and in the assay on CAKI-1 renal was greater than 100 µM each time.

Regarding `O=S(=O)(NC1CCCCC1)c1ccc2c(c1)OCCOCCOCCOCCO2`, the TGI in the assay on UACC-257 melanoma, in the assay on LOX IMVI melanoma, with SNB-75 CNS, in the assay with ACHN renal, in the assay on A549 NSCLC and with KM12 colon was greater than 100 µM in each case. The compound further returned a TGI in the assay with CAKI-1 renal greater than 100 µM.

With `CCCn1c2c(c3c(O)cccc31)C(=O)c1ccccc1-2`, the GI50 with UACC-257 melanoma is 22.9 µM; in the assay on LOX IMVI melanoma, 31.6 µM; with ACHN renal, 14.9 µM; in the assay on A549 NSCLC, 21.8 µM; with U251 CNS it was 18.2 µM; in the assay with CAKI-1 renal, 20.2 µM. Besides, the TGI was 96.5 µM with UACC-257 melanoma; greater than 100 µM in the assay with LOX IMVI melanoma; 45.1 µM in the assay on ACHN renal; greater than 100 µM in the assay on A549 NSCLC; 56.2 µM in the assay with U251 CNS; 61.9 µM with CAKI-1 renal.

On to `COC1C(OC(=O)c2ccc(C)[nH]2)C(O)C(Oc2ccc3c(O)c(NC(=O)c4c[nH]c(C(=O)Nc5c(O)c6ccc(OC7OC(C)(C)C(OC)C(OC(=O)c8ccc(C)[nH]8)C7O)c(C)c6oc5=O)c4C)c(=O)oc3c2C)OC1(C)C` (centres undefined), for which the TGI in the assay on UACC-257 melanoma was found to be 33.5 µM; with LOX IMVI melanoma, 9.4 µM; in the assay with SNB-75 CNS, 4.85 µM; in the assay with ACHN renal, 9.43 µM; with A549 NSCLC, 61.3 µM; with U251 CNS, 2.89 µM. Besides, the TGI in the assay on KM12 colon came to 8.89 µM; in the assay on CAKI-1 renal, 6.08 µM; in the assay with RXF 393 renal it was 2.23 µM.

As for `Cc1cc2c(c(C(N)=O)c1C)-c1cccc(F)c1C2=O`, the TGI with UACC-257 melanoma was greater than 100 µM; with LOX IMVI melanoma, greater than 100 µM; with SNB-75 CNS, 66.5 µM; in the assay on ACHN renal, greater than 100 µM; in the assay with A549 NSCLC it was greater than 100 µM; in the assay with U251 CNS, greater than 100 µM. Also, the TGI with KM12 colon and in the assay on HOP-92 NSCLC was greater than 100 µM in each case.

On to `Cc1ccc(/C=C/c2c(C(=O)/C=C/c3ccccc3)c(C)nc3ccccc23)cc1`, for which the GI50 in the assay with UACC-257 melanoma was 1.86 µM; with LOX IMVI melanoma, 1.64 µM; in the assay with ACHN renal, 1.59 µM; with A549 NSCLC it was 2.04 µM; in the assay with U251 CNS it was 1.5 µM; with KM12 colon, 1.72 µM. The GI50 in the assay with HOP-92 NSCLC is 1.52 µM; in the assay with RXF 393 renal, 1.53 µM. For the same compound, the TGI in the assay with UACC-257 melanoma came out at 4.02 µM; in the assay with LOX IMVI melanoma, 3 µM; in the assay on ACHN renal it was 2.93 µM; in the assay on A549 NSCLC, 5.6 µM; in the assay on U251 CNS, 2.87 µM; with KM12 colon, 3.36 µM. Moreover, the TGI in the assay with HOP-92 NSCLC was 4.34 µM; in the assay on RXF 393 renal, 2.88 µM.

`O=C(O)C[C@H](O)C[C@H](O)/C=C/c1c(C2CC2)nc2ccccc2c1-c1ccc(F)cc1`: the GI50 in the assay on UACC-257 melanoma was greater than 100 µM; in the assay on LOX IMVI melanoma, 1.33 µM; with A549 NSCLC, > 100 µM and 18.7 µM; with U251 CNS, 1.62 µM and 0.302 µM; in the assay on KM12 colon it was 34.2 µM and 24.8 µM; in the assay on CAKI-1 renal, 2.66 µM and 1.25 µM. Also, the TGI is greater than 100 µM with UACC-257 melanoma; 13.9 µM in the assay with LOX IMVI melanoma; greater than 100 µM in the assay on A549 NSCLC; greater than 100 µM with U251 CNS; greater than 100 µM in the assay with KM12 colon; 0.227 µM and 0.0622 µM in the assay on HOP-92 NSCLC. In addition, in the assay with CAKI-1 renal, the TGI was 12.5 µM and 5.31 µM.
